Experimental data taken from patent US10072026B2, “Crystalline form of 3-((1R,3s,5S)-3-((7-((5-methyl-1H-pyrazol-3-yl)amino)-1,6-naphthyridin-5-yl)amino)-8-azabicyclo[3.2.1]octan-8-yl)propanenitrile” (priority 2015, dated 2018).

Experiments:
JAK2 = JAK2 (Homo sapiens (Human), UniProt O60674); experiment: LanthaScreen JAK biochemical assay (JAK2); details: for Ki: read-out: JAK 2 (pKi) (converted)
JAK1 = JAK1 (Homo sapiens (Human), UniProt P23458); experiment: LanthaScreen JAK biochemical assay (JAK1); details: for Ki: read-out: JAK 1 (pKi) (converted)
[1] = test system: IL-4 induced STAT6 phosphorylation in THP-1 human monocytic cells; experiment: Cellular JAK potency assay, THP-1
[2] = test system: IL-13 induced STAT6 phosphorylation in BEAS-2B human lung epithelial cells; experiment: AlphaScreen cellular JAK potency assay, BEAS-2B
Tyk2 = Tyk2 (Homo sapiens (Human), UniProt P29597); experiment: LanthaScreen JAK biochemical assay (Tyk2); details: read-out: Tyk 2 (pKi) (converted)
[3] = THP-1 cells, IL-4 induced STAT6 phosphorylation
[4] = BEAS-2B cells, IL-13 induced STAT6 phosphorylation
[5] = IL-4 induced STAT6 phosphorylation, THP-1 cells
[6] = IL-13 induced STAT6 phosphorylation, BEAS-2B cells
[7] = Homo sapiens, THP-1, read-out: THP-1 IL4 pIC50 (converted)
[8] = Homo sapiens, BEAS-2B, read-out: BEAS2B pIC50 (converted)

Chain of JAK2 (O60674 whole entry): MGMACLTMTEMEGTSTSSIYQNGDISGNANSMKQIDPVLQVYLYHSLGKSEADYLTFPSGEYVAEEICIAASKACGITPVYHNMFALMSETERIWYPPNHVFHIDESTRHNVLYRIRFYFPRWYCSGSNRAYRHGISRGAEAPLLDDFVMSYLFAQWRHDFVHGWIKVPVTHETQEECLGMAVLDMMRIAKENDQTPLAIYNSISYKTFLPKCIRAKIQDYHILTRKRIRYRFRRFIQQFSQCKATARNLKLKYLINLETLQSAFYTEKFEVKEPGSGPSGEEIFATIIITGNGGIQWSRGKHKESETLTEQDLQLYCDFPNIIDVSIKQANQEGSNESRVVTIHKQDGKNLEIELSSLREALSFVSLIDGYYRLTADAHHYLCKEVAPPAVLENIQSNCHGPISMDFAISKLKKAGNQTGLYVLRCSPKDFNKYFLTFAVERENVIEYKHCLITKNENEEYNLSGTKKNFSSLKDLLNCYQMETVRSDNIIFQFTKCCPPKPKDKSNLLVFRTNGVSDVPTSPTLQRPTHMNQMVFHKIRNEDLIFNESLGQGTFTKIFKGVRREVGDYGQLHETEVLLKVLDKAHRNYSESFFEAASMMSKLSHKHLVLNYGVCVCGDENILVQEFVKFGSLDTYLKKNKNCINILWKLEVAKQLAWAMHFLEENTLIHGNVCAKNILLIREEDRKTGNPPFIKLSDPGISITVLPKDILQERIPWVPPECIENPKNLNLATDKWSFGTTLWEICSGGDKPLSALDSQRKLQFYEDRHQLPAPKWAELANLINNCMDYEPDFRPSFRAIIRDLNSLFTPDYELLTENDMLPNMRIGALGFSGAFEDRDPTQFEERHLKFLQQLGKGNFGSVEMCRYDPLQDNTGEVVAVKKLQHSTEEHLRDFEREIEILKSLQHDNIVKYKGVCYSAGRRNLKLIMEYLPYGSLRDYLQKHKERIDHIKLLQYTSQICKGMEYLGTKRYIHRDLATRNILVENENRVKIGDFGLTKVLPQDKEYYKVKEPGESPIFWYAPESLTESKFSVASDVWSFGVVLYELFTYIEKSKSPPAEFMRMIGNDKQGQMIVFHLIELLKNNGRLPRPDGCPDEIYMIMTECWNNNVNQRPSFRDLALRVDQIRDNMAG
Chain of JAK1 (P23458 whole entry): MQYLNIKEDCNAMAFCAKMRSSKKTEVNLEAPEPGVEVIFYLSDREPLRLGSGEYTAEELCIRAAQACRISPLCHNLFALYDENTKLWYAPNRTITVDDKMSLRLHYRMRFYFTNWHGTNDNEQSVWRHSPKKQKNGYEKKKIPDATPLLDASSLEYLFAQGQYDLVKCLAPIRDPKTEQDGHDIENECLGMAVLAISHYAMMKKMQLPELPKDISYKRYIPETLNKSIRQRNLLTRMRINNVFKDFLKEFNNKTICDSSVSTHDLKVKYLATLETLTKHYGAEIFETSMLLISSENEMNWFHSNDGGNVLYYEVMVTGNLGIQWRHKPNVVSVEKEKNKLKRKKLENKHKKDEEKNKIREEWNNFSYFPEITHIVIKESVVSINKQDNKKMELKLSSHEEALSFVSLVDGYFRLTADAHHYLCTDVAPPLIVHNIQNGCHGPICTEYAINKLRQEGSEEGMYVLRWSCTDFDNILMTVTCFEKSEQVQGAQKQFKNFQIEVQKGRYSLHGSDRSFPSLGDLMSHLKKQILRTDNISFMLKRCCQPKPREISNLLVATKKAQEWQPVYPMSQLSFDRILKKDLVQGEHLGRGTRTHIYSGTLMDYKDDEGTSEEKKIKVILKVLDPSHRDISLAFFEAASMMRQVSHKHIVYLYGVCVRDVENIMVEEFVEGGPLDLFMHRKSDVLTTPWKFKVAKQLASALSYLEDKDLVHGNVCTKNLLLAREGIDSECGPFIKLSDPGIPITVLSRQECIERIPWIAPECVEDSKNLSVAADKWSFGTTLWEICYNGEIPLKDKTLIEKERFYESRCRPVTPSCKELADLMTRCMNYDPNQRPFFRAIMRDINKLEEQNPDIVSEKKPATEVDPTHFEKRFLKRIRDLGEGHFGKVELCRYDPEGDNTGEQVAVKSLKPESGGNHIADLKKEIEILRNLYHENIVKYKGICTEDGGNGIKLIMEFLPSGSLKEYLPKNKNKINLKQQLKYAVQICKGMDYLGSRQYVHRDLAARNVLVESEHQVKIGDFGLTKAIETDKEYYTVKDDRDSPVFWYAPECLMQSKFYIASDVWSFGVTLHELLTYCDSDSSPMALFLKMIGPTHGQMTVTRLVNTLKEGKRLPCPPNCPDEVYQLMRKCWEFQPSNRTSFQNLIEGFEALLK
Chain of Tyk2 (P29597 whole entry): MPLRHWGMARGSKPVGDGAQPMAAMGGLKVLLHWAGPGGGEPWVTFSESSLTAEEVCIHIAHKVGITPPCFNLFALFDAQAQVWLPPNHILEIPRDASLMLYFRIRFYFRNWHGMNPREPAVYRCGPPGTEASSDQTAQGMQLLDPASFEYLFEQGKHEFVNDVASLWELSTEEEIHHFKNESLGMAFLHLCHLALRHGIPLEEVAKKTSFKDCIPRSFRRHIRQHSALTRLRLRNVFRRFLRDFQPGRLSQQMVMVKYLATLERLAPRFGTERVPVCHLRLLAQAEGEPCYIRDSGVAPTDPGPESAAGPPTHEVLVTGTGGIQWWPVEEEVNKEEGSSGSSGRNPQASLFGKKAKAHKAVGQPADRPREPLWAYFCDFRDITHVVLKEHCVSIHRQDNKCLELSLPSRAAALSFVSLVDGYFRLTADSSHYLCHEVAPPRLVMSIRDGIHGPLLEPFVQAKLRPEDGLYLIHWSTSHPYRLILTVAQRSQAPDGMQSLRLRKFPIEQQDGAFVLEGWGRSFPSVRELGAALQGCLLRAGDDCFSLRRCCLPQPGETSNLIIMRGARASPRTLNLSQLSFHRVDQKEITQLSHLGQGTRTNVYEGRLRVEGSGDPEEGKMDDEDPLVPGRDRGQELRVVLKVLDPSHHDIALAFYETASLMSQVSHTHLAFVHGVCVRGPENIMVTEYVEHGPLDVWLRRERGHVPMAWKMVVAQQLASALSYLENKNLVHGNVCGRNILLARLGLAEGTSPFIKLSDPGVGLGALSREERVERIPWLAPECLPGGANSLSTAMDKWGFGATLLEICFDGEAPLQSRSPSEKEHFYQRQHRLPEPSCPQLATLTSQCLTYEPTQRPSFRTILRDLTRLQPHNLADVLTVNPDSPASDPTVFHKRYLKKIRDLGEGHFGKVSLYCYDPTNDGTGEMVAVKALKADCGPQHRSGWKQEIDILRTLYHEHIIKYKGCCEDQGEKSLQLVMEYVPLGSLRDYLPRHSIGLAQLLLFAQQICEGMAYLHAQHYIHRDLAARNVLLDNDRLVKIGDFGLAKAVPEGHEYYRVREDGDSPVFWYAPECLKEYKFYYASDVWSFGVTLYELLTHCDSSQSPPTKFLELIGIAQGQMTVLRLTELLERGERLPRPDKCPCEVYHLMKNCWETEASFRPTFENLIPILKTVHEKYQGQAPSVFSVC

Compound	JAK 2 (pKi) (JAK2)	JAK 1 (pKi) (JAK1)	THP-1 IL4 pIC50 [1, 3]	BEAS2B pIC50 [2, 4]	THP-1 IL4 pIC50 [1, 5]	BEAS2B pIC50 [2, 6]	Ki (Tyk2) [nM]	IC50 [1, 7] [nM]	Ki (JAK2) [nM]	Ki (JAK1) [nM]	IC50 [2, 8] [nM]
COc1ccnc2cc(Nc3cc(C)[nH]n3)nc(N[C@@H]3C[C@H]4CC[C@@H](C3)N4CCC#N)c12 [Example 7-6]	B (B represents a pKi value between 9 and 10 (Ki between 1 nM and 0.1 nM))	B (B represents a pKi value between 9 and 10 (Ki between 1 nM and 0.1 nM))	A (A represents a pEC50 value≥7.5 (EC50≤32 nM))	B (B represents a pEC50 value between 6.7 and 7.5 (EC50 between 200 nM and 32 nM))							
Cc1cc(Nc2cc3ncccc3c(N[C@@H]3C[C@H]4CCC[C@@H](C3)N4S(=O)(=O)Cc3cccnc3)n2)n[nH]1 [Example 4-26]	B (B represents a pKi value between 9 and 10 (Ki between 1 nM and 0.1 nM))	B (B represents a pKi value between 9 and 10 (Ki between 1 nM and 0.1 nM))			B (B represents a pEC50 value between 6.7 and 7.5 (EC50 between 200 nM and 32 nM))	B (B represents a pEC50 value between 6.7 and 7.5 (EC50 between 200 nM and 32 nM))					
Cc1cc(Nc2cc3ncccc3c(N[C@@H]3C[C@H]4CCC[C@@H](C3)N4CCC(F)(F)F)n2)n[nH]1 [Example 1-44]	B (B represents a pKi value between 9 and 10 (Ki between 1 nM and 0.1 nM))	B (B represents a pKi value between 9 and 10 (Ki between 1 nM and 0.1 nM))			A (A represents a pEC50 value≥7.5 (EC50≤32 nM))	A (A represents a pEC50 value≥7.5 (EC50≤32 nM))					
Cc1cc(Nc2cc3nc(CO)ccc3c(N[C@@H]3C[C@H]4CC[C@@H](C3)N4S(C)(=O)=O)n2)n[nH]1 [Example 5-12]							0.1 to 1	31.6 to 200			
Cc1cc(Nc2cc3ncccc3c(N[C@@H]3C[C@H]4CCC[C@@H](C3)N4CC(C)C)n2)n[nH]1 [Example 1-43]	B (B represents a pKi value between 9 and 10 (Ki between 1 nM and 0.1 nM))	B (B represents a pKi value between 9 and 10 (Ki between 1 nM and 0.1 nM))			A (A represents a pEC50 value≥7.5 (EC50≤32 nM))	A (A represents a pEC50 value≥7.5 (EC50≤32 nM))					
Cc1cc(Nc2cc3ncccc3c(N[C@@H]3C[C@H]4CC[C@@H](C3)N4S(=O)(=O)c3cncc(F)c3)n2)n[nH]1 [Example 4-15]								< 31.6	0.1 to 1	0.1 to 1	< 31.6
Cc1cc(Nc2cc3nc(CO)ccc3c(N[C@@H]3C[C@H]4CC[C@@H](C3)N4CCCF)n2)n[nH]1 [Example 5-14]	B (B represents a pKi value between 9 and 10 (Ki between 1 nM and 0.1 nM))	B (B represents a pKi value between 9 and 10 (Ki between 1 nM and 0.1 nM))			B (B represents a pEC50 value between 6.7 and 7.5 (EC50 between 200 nM and 32 nM))	B (B represents a pEC50 value between 6.7 and 7.5 (EC50 between 200 nM and 32 nM))					
CCN1CC(S(=O)(=O)N2[C@@H]3CC[C@H]2C[C@H](Nc2nc(Nc4cc(C)[nH]n4)cc4ncccc24)C3)C1 [Example 4-10]								31.6 to 200	0.1 to 1	0.1 to 1	31.6 to 200
COc1ccc2c(N[C@@H]3C[C@H]4CCC[C@@H](C3)N4CCC#N)nc(Nc3cc(C)[nH]n3)cc2n1 [Example 5-10]	A (A represents a pKi value≥10 (Ki≤0.1 nM))	A (A represents a pKi value≥10 (Ki≤0.1 nM))			A (A represents a pEC50 value≥7.5 (EC50≤32 nM))	A (A represents a pEC50 value≥7.5 (EC50≤32 nM))					
Cc1cc(Nc2cc3ncccc3c(N[C@@H]3C[C@H]4CCC[C@@H](C3)N4CCCF)n2)n[nH]1 [Example 1-40]	B (B represents a pKi value between 9 and 10 (Ki between 1 nM and 0.1 nM))	B (B represents a pKi value between 9 and 10 (Ki between 1 nM and 0.1 nM))			A (A represents a pEC50 value≥7.5 (EC50≤32 nM))	A (A represents a pEC50 value≥7.5 (EC50≤32 nM))					
CCS(=O)(=O)N1[C@@H]2CC[C@H]1C[C@H](Nc1nc(Nc3cc(C)[nH]n3)cc3nccc(OC)c13)C2 [Example 7-2]								< 31.6	0.1 to 1	0.1 to 1	< 31.6
COc1cnc2cc(Nc3cc(C)[nH]n3)nc(N[C@@H]3C[C@H]4CC[C@@H](C3)N4CCC(F)(F)F)c2c1 [Example 6-15]	B (B represents a pKi value between 9 and 10 (Ki between 1 nM and 0.1 nM))	B (B represents a pKi value between 9 and 10 (Ki between 1 nM and 0.1 nM))	A (A represents a pEC50 value≥7.5 (EC50≤32 nM))	A (A represents a pEC50 value≥7.5 (EC50≤32 nM))							
Cc1cc(Nc2cc3nc(CN4CCOCC4)ccc3c(N[C@@H]3C[C@H]4CCC[C@@H](C3)N4S(C)(=O)=O)n2)n[nH]1 [Example 5-22]	A (A represents a pKi value≥10 (Ki≤0.1 nM))	A (A represents a pKi value≥10 (Ki≤0.1 nM))			B (B represents a pEC50 value between 6.7 and 7.5 (EC50 between 200 nM and 32 nM))	A (A represents a pEC50 value≥7.5 (EC50≤32 nM))					
Cc1cc(Nc2nc(N[C@@H]3C[C@H]4CCC[C@@H](C3)N4S(C)(=O)=O)c3cccnc3c2F)n[nH]1 [Example 8-10]	A (A represents a pKi value≥10 (Ki≤0.1 nM))	A (A represents a pKi value≥10 (Ki≤0.1 nM))	A (A represents a pEC50 value≥7.5 (EC50≤32 nM))	A (A represents a pEC50 value≥7.5 (EC50≤32 nM))							
Cc1cc(Nc2cc3ncccc3c(N[C@@H]3C[C@H]4CC[C@@H](C3)N4Cc3ccncc3)n2)n[nH]1 [Example 1-17]	B (B represents a pKi value between 9 and 10 (Ki between 1 nM and 0.1 nM))	B (B represents a pKi value between 9 and 10 (Ki between 1 nM and 0.1 nM))			B (B represents a pEC50 value between 6.7 and 7.5 (EC50 between 200 nM and 32 nM))	B (B represents a pEC50 value between 6.7 and 7.5 (EC50 between 200 nM and 32 nM))					
Cc1cc(Nc2nc(N[C@@H]3C[C@H]4CCC[C@@H](C3)N4S(=O)(=O)c3cccnc3)c3cccnc3c2F)n[nH]1 [Example 8-12]	B (B represents a pKi value between 9 and 10 (Ki between 1 nM and 0.1 nM))	B (B represents a pKi value between 9 and 10 (Ki between 1 nM and 0.1 nM))	A (A represents a pEC50 value≥7.5 (EC50≤32 nM))	A (A represents a pEC50 value≥7.5 (EC50≤32 nM))							
Cc1cc(Nc2cc3ncccc3c(N[C@@H]3C[C@H]4CCC[C@@H](C3)N4CCC#N)n2)n[nH]1 [Example 1-31]	A (A represents a pKi value≥10 (Ki≤0.1 nM))	A (A represents a pKi value≥10 (Ki≤0.1 nM))			A (A represents a pEC50 value≥7.5 (EC50≤32 nM))	A (A represents a pEC50 value≥7.5 (EC50≤32 nM))					
COc1cnc2cc(Nc3cc(C)[nH]n3)nc(N[C@@H]3C[C@H]4CC[C@@H](C3)N4Cc3ccncc3)c2c1 [Example 6-24]	B (B represents a pKi value between 9 and 10 (Ki between 1 nM and 0.1 nM))	B (B represents a pKi value between 9 and 10 (Ki between 1 nM and 0.1 nM))	B (B represents a pEC50 value between 6.7 and 7.5 (EC50 between 200 nM and 32 nM))	B (B represents a pEC50 value between 6.7 and 7.5 (EC50 between 200 nM and 32 nM))							
COc1ccc2c(N[C@@H]3C[C@H]4CC[C@@H](C3)N4C(=O)C3(C(F)(F)F)CC3)nc(Nc3cc(C)[nH]n3)cc2n1 [Example 5-6]								< 31.6	0.1 to 1	0.1 to 1	< 31.6
COc1cnc2cc(Nc3cc(C)[nH]n3)nc(N[C@@H]3C[C@H]4CCC[C@@H](C3)N4Cc3ccncc3)c2c1 [Example 6-28]	B (B represents a pKi value between 9 and 10 (Ki between 1 nM and 0.1 nM))	B (B represents a pKi value between 9 and 10 (Ki between 1 nM and 0.1 nM))	A (A represents a pEC50 value≥7.5 (EC50≤32 nM))	A (A represents a pEC50 value≥7.5 (EC50≤32 nM))							
Cc1cc(Nc2cc3ncccc3c(N[C@@H]3C[C@H]4CC[C@@H](C3)N4CC(C)C#N)n2)n[nH]1 (stereo partly shown) [Example 1-23]	A (A represents a pKi value≥10 (Ki≤0.1 nM))	A (A represents a pKi value≥10 (Ki≤0.1 nM))			A (A represents a pEC50 value≥7.5 (EC50≤32 nM))	A (A represents a pEC50 value≥7.5 (EC50≤32 nM))					
Cc1cc(Nc2cc3ncccc3c(N[C@@H]3C[C@H]4CCC[C@@H](C3)N4CCF)n2)n[nH]1 [Example 1-39]	B (B represents a pKi value between 9 and 10 (Ki between 1 nM and 0.1 nM))	B (B represents a pKi value between 9 and 10 (Ki between 1 nM and 0.1 nM))			A (A represents a pEC50 value≥7.5 (EC50≤32 nM))	A (A represents a pEC50 value≥7.5 (EC50≤32 nM))					
Cc1cc(Nc2cc3ncccc3c(N[C@@H]3C[C@H]4CC[C@@H](C3)N4S(=O)(=O)C(C)C)n2)n[nH]1 [Example 4-2]								< 31.6	0.1 to 1	0.1 to 1	< 31.6
Cc1cc(Nc2cc3ncccc3c(N[C@@H]3C[C@H]4CC[C@@H](C3)N4C(C)CC#N)n2)n[nH]1 (stereo partly shown) [Example 1-21]	B (B represents a pKi value between 9 and 10 (Ki between 1 nM and 0.1 nM))	B (B represents a pKi value between 9 and 10 (Ki between 1 nM and 0.1 nM))			A (A represents a pEC50 value≥7.5 (EC50≤32 nM))	B (B represents a pEC50 value between 6.7 and 7.5 (EC50 between 200 nM and 32 nM))					
